# Experimental data taken from US4523033A, “Heart testing compound” (The United States of America as represented by the United …, priority 1983, dated 1985).
# Like-named read-outs stand apart in the source and are kept apart here.
# Assays:
# [1] = cited from earlier work
# [2] = Cumulative excretion of radioactivity in urine and feces after injection; type: in vivo; details: rat
# Description: These studies were conducted over a five-day period, which represents a decay period of […] for 13.2-hr iodine-123. The cumulative excretion levels in urine and feces were 43.2±1.8% injected dose after two days and […] after five days. The radioactive content of the urine (20.8±2.1%) and feces 22.4±1.1%) were similar after two days, but after five days the cumulative fecal activity (41.4±4.3%) was greater than that for urine (30.5±4.0%).
# [3] = Tissue distribution of radioactivity in rats after intravenous administration; type: in vivo; details: rat; for tissue uptake at 5 min / tissue uptake at 0.5 h / tissue uptake at 1 h / tissue uptake at 2 h / tissue uptake at 6 h / tissue uptake at 24 h / tissue uptake at 120 h: iv
# Description: In Table I, the tissue distribution of radioactivity in rats after intravenous administration of a bovine serium-albumin complex of the 15-(p-[^125 I]-iodophenyl)-6-Tellurapentadecanoic acid is summarized for various time periods from 5 minutes to 5 days.
# [4] = after five days, % injected dose, 7200 min
# [5] = after two days, % injected dose, 2880 min
compound,measurement,setting,value
O=C(O)CCCCCCCCCCCCCCc1ccc(I)cc1 [15-(p-iodophenyl) pentadecanoic acid],Concentration of radioactive iodide in the blood (in words),[1]; Machulla et al 1980,avoids the high concentration of radioactive iodide in the blood
O=C(O)CCCCCCCCCCCCCCc1ccc([125I])cc1 [15-(p-[^125 I]iodophenyl) pentadecanoic acid],Washout from the myocardium (in words),[1]; background,relatively rapid
O=C(O)CCCC[Te]CCCCCCCCCc1ccc([125I])cc1 [15-(p-[^125 I]iodophenyl)-6-tellurapentadecanoic acid],Cumulative excretion in urine and feces,[2]; [4],71.6±8.3%
same,Cumulative fecal activity,[2]; [4],41.4±4.3%
same,Cumulative urine activity,[2]; [4],30.5±4.0%
same,Cumulative excretion in urine and feces,"[2]; after two days, 2880 min",43.2±1.8 % injected dose
same,Radioactive content of the feces,[2]; [5],22.4±1.1%
same,Radioactive content of the urine,[2]; [5],20.8±2.1%
same,Heart retention of the maximum uptake observed after 5 minutes,[3]; after 6 hours,80%
same,Heart retention of the maximal value,[3]; after 24 hours,55%
same,tissue uptake at 5 min,"[3]; blood, 5 min, read-out: Distribution of radioactivity, Blood",0.26 %ID/g
same,tissue uptake at 0.5 h,"[3]; blood, 30 min, read-out: Distribution of radioactivity, Blood",0.45 %ID/g
same,tissue uptake at 1 h,"[3]; blood, 60 min, read-out: Distribution of radioactivity, Blood",0.34 %ID/g
same,tissue uptake at 2 h,"[3]; blood, 2 h, read-out: Distribution of radioactivity, Blood",0.42 %ID/g
same,tissue uptake at 6 h,"[3]; blood, 6 h, read-out: Distribution of radioactivity, Blood",0.31 %ID/g
same,tissue uptake at 24 h,"[3]; blood, 1 d, read-out: Distribution of radioactivity, Blood",0.2 %ID/g
same,tissue uptake at 120 h,"[3]; blood, 5 d, read-out: Distribution of radioactivity, Blood",0.03 %ID/g
same,tissue uptake at 5 min,"[3]; heart, 5 min, read-out: Distribution of radioactivity, Heart",5.87 %ID/g
same,tissue uptake at 0.5 h,"[3]; heart, 30 min, read-out: Distribution of radioactivity, Heart",5.43 %ID/g
same,tissue uptake at 1 h,"[3]; heart, 60 min, read-out: Distribution of radioactivity, Heart",5.55 %ID/g
same,tissue uptake at 2 h,"[3]; heart, 2 h, read-out: Distribution of radioactivity, Heart",5.85 %ID/g
same,tissue uptake at 6 h,"[3]; heart, 6 h, read-out: Distribution of radioactivity, Heart",4.78 %ID/g
same,tissue uptake at 24 h,"[3]; heart, 1 d, read-out: Distribution of radioactivity, Heart",3.25 %ID/g
same,tissue uptake at 120 h,"[3]; heart, 5 d, read-out: Distribution of radioactivity, Heart",0.94 %ID/g
same,Blood clearance (in words),[3]; i.v.,rapid blood clearance
same,Blood levels (in words),[3]; i.v.,low blood levels
same,Deiodination (in words),[3]; i.v.,minimal deiodination
same,Myocardial uptake (in words),[3]; i.v.,rapid and pronounced myocardial uptake
same,Radioactivity accumulated in thyroid tissue (in words),[3]; i.v.,Only marginal radioactivity accumulated in the thyroid tissue
same,Retention of radioactivity in the heart (in words),[3]; i.v.,Prolonged retention of radioactivity
same,"Distribution of radioactivity, Blood","[3]; i.v., 5 min",2.00 % injected dose/organ
same,"Distribution of radioactivity, Heart","[3]; i.v., 5 min",2.98 % injected dose/organ
same,"Distribution of radioactivity, Kidneys","[3]; i.v., 5 min",1.25 % injected dose/organ
same,"Distribution of radioactivity, Liver","[3]; i.v., 5 min",50.94 % injected dose/organ
same,"Distribution of radioactivity, Lungs","[3]; i.v., 5 min",0.97 % injected dose/organ
same,"Distribution of radioactivity, Thyroid","[3]; i.v., 5 min",0.02 % injected dose/organ
same,"Distribution of radioactivity, Blood","[3]; i.v., 30 min",3.41 % injected dose/organ
same,"Distribution of radioactivity, Heart","[3]; i.v., 30 min",2.61 % injected dose/organ
same,"Distribution of radioactivity, Kidneys","[3]; i.v., 30 min",1.52 % injected dose/organ
same,"Distribution of radioactivity, Liver","[3]; i.v., 30 min",39.28 % injected dose/organ
same,"Distribution of radioactivity, Lungs","[3]; i.v., 30 min",1.05 % injected dose/organ
same,"Distribution of radioactivity, Thyroid","[3]; i.v., 30 min",0.02 % injected dose/organ
same,"Distribution of radioactivity, Blood","[3]; i.v., 60 min",2.66 % injected dose/organ
same,"Distribution of radioactivity, Heart","[3]; i.v., 60 min",2.87 % injected dose/organ
same,"Distribution of radioactivity, Kidneys","[3]; i.v., 60 min",1.73 % injected dose/organ
same,"Distribution of radioactivity, Liver","[3]; i.v., 60 min",39.03 % injected dose/organ
same,"Distribution of radioactivity, Lungs","[3]; i.v., 60 min",1.01 % injected dose/organ
same,"Distribution of radioactivity, Thyroid","[3]; i.v., 60 min",0.02 % injected dose/organ
same,"Distribution of radioactivity, Blood","[3]; i.v., 2 h",3.01 % injected dose/organ
same,"Distribution of radioactivity, Heart","[3]; i.v., 2 h",2.87 % injected dose/organ
same,"Distribution of radioactivity, Kidneys","[3]; i.v., 2 h",1.53 % injected dose/organ
same,"Distribution of radioactivity, Liver","[3]; i.v., 2 h",44.03 % injected dose/organ
same,"Distribution of radioactivity, Lungs","[3]; i.v., 2 h",1.29 % injected dose/organ
same,"Distribution of radioactivity, Thyroid","[3]; i.v., 2 h",0.04 % injected dose/organ
same,"Distribution of radioactivity, Blood","[3]; i.v., 6 h",2.26 % injected dose/organ
same,"Distribution of radioactivity, Heart","[3]; i.v., 6 h",2.32 % injected dose/organ
same,"Distribution of radioactivity, Kidneys","[3]; i.v., 6 h",1.25 % injected dose/organ
same,"Distribution of radioactivity, Liver","[3]; i.v., 6 h",46.39 % injected dose/organ
same,"Distribution of radioactivity, Lungs","[3]; i.v., 6 h",0.85 % injected dose/organ
same,"Distribution of radioactivity, Thyroid","[3]; i.v., 6 h",0.07 % injected dose/organ
same,"Distribution of radioactivity, Blood","[3]; i.v., 1 d",1.50 % injected dose/organ
same,"Distribution of radioactivity, Heart","[3]; i.v., 1 d",1.60 % injected dose/organ
same,"Distribution of radioactivity, Kidneys","[3]; i.v., 1 d",0.81 % injected dose/organ
same,"Distribution of radioactivity, Liver","[3]; i.v., 1 d",34.28 % injected dose/organ
same,"Distribution of radioactivity, Lungs","[3]; i.v., 1 d",0.70 % injected dose/organ
same,"Distribution of radioactivity, Thyroid","[3]; i.v., 1 d",0.26 % injected dose/organ
same,"Distribution of radioactivity, Blood","[3]; i.v., 5 d",0.23 % injected dose/organ
same,"Distribution of radioactivity, Heart","[3]; i.v., 5 d",0.45 % injected dose/organ
same,"Distribution of radioactivity, Kidneys","[3]; i.v., 5 d",0.23 % injected dose/organ
same,"Distribution of radioactivity, Liver","[3]; i.v., 5 d",6.46 % injected dose/organ
same,"Distribution of radioactivity, Lungs","[3]; i.v., 5 d",0.24 % injected dose/organ
same,"Distribution of radioactivity, Thyroid","[3]; i.v., 5 d",0.32 % injected dose/organ
same,tissue uptake at 5 min,"[3]; kidneys, 5 min, read-out: Distribution of radioactivity, Kidneys",1.02 %ID/g
same,tissue uptake at 0.5 h,"[3]; kidneys, 30 min, read-out: Distribution of radioactivity, Kidneys",1.25 %ID/g
same,tissue uptake at 1 h,"[3]; kidneys, 60 min, read-out: Distribution of radioactivity, Kidneys",1.41 %ID/g
same,tissue uptake at 2 h,"[3]; kidneys, 2 h, read-out: Distribution of radioactivity, Kidneys",1.37 %ID/g
same,tissue uptake at 6 h,"[3]; kidneys, 6 h, read-out: Distribution of radioactivity, Kidneys",1.12 %ID/g
same,tissue uptake at 24 h,"[3]; kidneys, 1 d, read-out: Distribution of radioactivity, Kidneys",0.7 %ID/g
same,tissue uptake at 120 h,"[3]; kidneys, 5 d, read-out: Distribution of radioactivity, Kidneys",0.2 %ID/g
same,tissue uptake at 5 min,"[3]; liver, 5 min, read-out: Distribution of radioactivity, Liver",9.57 %ID/g
same,tissue uptake at 0.5 h,"[3]; liver, 30 min, read-out: Distribution of radioactivity, Liver",7.78 %ID/g
same,tissue uptake at 1 h,"[3]; liver, 60 min, read-out: Distribution of radioactivity, Liver",7.69 %ID/g
same,tissue uptake at 2 h,"[3]; liver, 2 h, read-out: Distribution of radioactivity, Liver",8.38 %ID/g
same,tissue uptake at 6 h,"[3]; liver, 6 h, read-out: Distribution of radioactivity, Liver",8.37 %ID/g
same,tissue uptake at 24 h,"[3]; liver, 1 d, read-out: Distribution of radioactivity, Liver",6.24 %ID/g
same,tissue uptake at 120 h,"[3]; liver, 5 d, read-out: Distribution of radioactivity, Liver",1.28 %ID/g
same,tissue uptake at 5 min,"[3]; lungs, 5 min, read-out: Distribution of radioactivity, Lungs",1.14 %ID/g
same,tissue uptake at 0.5 h,"[3]; lungs, 30 min, read-out: Distribution of radioactivity, Lungs",1.25 %ID/g
same,tissue uptake at 1 h,"[3]; lungs, 60 min, read-out: Distribution of radioactivity, Lungs",1.48 %ID/g
same,tissue uptake at 2 h,"[3]; lungs, 2 h, read-out: Distribution of radioactivity, Lungs",1.57 %ID/g
same,tissue uptake at 6 h,"[3]; lungs, 6 h, read-out: Distribution of radioactivity, Lungs",1.1 %ID/g
same,tissue uptake at 24 h,"[3]; lungs, 1 d, read-out: Distribution of radioactivity, Lungs",0.89 %ID/g
same,tissue uptake at 120 h,"[3]; lungs, 5 d, read-out: Distribution of radioactivity, Lungs",0.33 %ID/g
same,tissue uptake at 5 min,"[3]; thyroid, 5 min, read-out: Distribution of radioactivity, Thyroid",1.52 %ID/g
same,tissue uptake at 0.5 h,"[3]; thyroid, 30 min, read-out: Distribution of radioactivity, Thyroid",1.51 %ID/g
same,tissue uptake at 1 h,"[3]; thyroid, 60 min, read-out: Distribution of radioactivity, Thyroid",1.48 %ID/g
same,tissue uptake at 2 h,"[3]; thyroid, 2 h, read-out: Distribution of radioactivity, Thyroid",3.51 %ID/g
same,tissue uptake at 6 h,"[3]; thyroid, 6 h, read-out: Distribution of radioactivity, Thyroid",5.89 %ID/g
same,tissue uptake at 24 h,"[3]; thyroid, 1 d, read-out: Distribution of radioactivity, Thyroid",22.8 %ID/g
same,tissue uptake at 120 h,"[3]; thyroid, 5 d, read-out: Distribution of radioactivity, Thyroid",30.2 %ID/g
same,tissue uptake at 5 min,"[3]; thyroid, after 5 minutes, read-out: Radioactivity accumulated in the thyroid tissue",1.52 %ID/g
same,tissue uptake at 6 h,"[3]; thyroid, after 6 hours, read-out: Radioactivity accumulated in the thyroid tissue",5.84 %ID/g
CCCCCCCC[123Te]CCCCCCCC(=O)O [9-[^123m Te] telluraheptadecanoic acid],Uptake and retention in the myocardium (in words),[1]; Knapp et al 1981,rapid uptake and prolonged retention in the myocardium
